Results reported in ChEMBL document CHEMBL5104103 (J Med Chem, 2022).
In brackets after ≈: the same amount, converted by molar mass.

Experiments:
[1] = Inhibition of anti-IgM-stimulated CD20+ B cell activation in human whole blood assessed as measuring CD69 expression level pretreated for 1 hr followed by anti-IgM stimulation measured after 18 hrs by flow cytometry
[2] = Solubility of compound in PBS at pH 7 by LCMS/MS analysis; assay type: physicochemical
[3] = Permeability across basolateral to apical membrane in human Caco-2 cells; assay type: ADME, cell-based; conditions: read-out: permeability
[4] = Clearance in human liver S9 fraction assessed as measuring per mg protein by LCMS/MS analysis; assay type: ADME, subcellular; conditions: read-out: CLH
[5] = Permeability across apical to basolateral membrane in human Caco-2 cells; assay type: ADME, cell-based; conditions: read-out: permeability
[6] = AUC in rat at 20 mg/kg, po or 2 mg/kg, iv; assay type: ADME, organism-based; set-up: dose 20 mg/kg, route po; conditions: in vivo, read-out: AUC
[7] = Cmax in rat at 20 mg/kg, po or 2 mg/kg, iv; assay type: ADME, organism-based; set-up: dose 20 mg/kg, route po; conditions: in vivo
[8] = Oral bioavailability in rat at 20 mg/kg; assay type: ADME, organism-based; conditions: in vivo
[9] = Clearance in rat at 2 mg/kg, iv; assay type: ADME, organism-based; conditions: in vivo
[10] = target: Voltage-gated inwardly rectifying potassium channel KCNH2 (Homo sapiens, UniProt Q12809); experiment: Inhibition of hERG; assay type: toxicity
Sequence of Voltage-gated inwardly rectifying potassium channel KCNH2 (Q12809 whole entry): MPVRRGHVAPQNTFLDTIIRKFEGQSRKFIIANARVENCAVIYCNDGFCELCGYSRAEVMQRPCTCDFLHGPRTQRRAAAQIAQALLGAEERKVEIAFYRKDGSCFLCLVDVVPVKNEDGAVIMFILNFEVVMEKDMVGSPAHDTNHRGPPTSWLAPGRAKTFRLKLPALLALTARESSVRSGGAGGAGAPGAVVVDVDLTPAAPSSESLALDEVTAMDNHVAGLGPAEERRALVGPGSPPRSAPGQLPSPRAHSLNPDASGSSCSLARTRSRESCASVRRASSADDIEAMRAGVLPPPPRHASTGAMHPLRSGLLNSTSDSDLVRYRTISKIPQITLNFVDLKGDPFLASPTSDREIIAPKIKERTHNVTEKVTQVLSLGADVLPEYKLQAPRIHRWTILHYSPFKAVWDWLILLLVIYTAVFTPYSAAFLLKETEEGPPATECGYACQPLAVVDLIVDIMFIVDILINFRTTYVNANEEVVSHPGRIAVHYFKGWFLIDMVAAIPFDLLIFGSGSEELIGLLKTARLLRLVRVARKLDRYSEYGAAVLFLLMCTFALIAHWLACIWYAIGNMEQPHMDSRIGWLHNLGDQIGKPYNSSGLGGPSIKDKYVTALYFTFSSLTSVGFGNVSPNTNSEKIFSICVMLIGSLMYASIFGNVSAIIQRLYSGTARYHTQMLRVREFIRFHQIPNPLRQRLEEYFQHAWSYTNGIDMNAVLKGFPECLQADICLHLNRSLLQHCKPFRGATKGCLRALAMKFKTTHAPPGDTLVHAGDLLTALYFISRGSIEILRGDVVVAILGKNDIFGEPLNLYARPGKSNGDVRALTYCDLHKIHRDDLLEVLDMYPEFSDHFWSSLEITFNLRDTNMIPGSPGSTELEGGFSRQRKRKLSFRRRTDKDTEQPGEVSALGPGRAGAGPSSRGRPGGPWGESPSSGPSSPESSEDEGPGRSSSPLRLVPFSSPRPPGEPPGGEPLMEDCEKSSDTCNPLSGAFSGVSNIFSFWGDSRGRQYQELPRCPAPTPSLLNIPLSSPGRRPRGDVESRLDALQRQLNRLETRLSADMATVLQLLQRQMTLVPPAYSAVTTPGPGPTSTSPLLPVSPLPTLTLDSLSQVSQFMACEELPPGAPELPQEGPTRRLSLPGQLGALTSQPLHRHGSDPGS

[11] = target: Tyrosine-protein kinase Blk (Homo sapiens, UniProt P51451); experiment: Inhibition of BLK (unknown origin) using peptide substrate in presence of ATP
Sequence of Tyrosine-protein kinase Blk (P51451 whole entry): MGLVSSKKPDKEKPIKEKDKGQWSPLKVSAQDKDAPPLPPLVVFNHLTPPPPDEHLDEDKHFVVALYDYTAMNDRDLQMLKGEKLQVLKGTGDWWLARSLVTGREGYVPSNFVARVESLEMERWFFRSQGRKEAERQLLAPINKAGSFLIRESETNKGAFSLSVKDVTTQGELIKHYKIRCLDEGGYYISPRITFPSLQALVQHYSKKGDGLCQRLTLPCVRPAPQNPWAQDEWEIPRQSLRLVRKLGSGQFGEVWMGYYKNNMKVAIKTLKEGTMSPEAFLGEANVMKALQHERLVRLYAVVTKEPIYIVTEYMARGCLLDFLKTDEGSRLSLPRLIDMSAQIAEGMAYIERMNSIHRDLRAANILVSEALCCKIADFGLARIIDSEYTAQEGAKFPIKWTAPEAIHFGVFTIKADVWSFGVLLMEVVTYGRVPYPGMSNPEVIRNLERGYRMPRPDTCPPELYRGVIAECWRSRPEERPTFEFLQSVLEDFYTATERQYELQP

[12] = Drug concentration in plasma of collagen-induced arthritis Lewis rat model 20 mg/kg measured after 12 hrs post-collection of plasma; assay type: ADME, organism-based
[13] = target: T1, Cytoplasmic tyrosine-protein kinase BMX (Homo sapiens, UniProt P51813); experiment: Inhibition of BMX (unknown origin) using peptide substrate in presence of ATP
T1 sequence (P51813 whole entry): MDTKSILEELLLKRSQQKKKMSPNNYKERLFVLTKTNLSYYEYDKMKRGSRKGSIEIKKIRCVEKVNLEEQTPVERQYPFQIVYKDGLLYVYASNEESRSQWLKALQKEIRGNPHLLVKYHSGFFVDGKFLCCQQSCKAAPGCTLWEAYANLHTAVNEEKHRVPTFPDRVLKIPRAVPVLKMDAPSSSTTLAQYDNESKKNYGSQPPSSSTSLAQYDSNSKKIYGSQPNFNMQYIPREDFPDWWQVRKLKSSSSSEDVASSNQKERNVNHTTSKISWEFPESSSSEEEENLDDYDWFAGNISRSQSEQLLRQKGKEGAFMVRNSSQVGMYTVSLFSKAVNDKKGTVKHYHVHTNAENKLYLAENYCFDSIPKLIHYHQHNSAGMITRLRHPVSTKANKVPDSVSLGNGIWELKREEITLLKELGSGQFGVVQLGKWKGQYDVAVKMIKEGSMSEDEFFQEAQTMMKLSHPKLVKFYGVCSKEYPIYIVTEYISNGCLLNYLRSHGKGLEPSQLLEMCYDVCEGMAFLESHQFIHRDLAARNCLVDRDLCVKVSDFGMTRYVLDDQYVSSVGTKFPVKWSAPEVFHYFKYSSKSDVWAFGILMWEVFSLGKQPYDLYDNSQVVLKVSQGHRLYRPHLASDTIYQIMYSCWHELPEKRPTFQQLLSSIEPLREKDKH

[14] = target: T2, Tyrosine-protein kinase Tec (Homo sapiens, UniProt P42680); experiment: Inhibition of TEC (unknown origin) using peptide substrate in presence of ATP
T2 sequence (P42680 whole entry): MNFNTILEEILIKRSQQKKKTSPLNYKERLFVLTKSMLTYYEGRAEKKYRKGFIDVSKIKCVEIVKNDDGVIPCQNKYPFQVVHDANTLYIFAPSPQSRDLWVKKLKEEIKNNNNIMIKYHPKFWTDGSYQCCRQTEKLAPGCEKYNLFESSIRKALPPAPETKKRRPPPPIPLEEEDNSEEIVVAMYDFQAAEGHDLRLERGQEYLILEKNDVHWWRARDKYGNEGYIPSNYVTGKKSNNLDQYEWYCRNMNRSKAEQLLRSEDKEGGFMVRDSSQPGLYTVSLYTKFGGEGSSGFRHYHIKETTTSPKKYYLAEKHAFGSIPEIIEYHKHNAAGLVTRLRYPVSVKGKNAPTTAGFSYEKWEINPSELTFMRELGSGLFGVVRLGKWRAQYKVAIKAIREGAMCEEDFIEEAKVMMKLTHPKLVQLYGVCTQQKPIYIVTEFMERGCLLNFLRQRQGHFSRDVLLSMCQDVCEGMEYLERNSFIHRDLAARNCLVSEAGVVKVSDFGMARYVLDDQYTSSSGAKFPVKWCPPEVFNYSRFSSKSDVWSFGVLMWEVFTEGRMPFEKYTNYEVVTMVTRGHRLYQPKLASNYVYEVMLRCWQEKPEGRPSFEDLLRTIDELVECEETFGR

[15] = Drug concentration in plasma of collagen-induced arthritis Lewis rat model 20 mg/kg measured after 24 hrs post-collection of plasma; assay type: ADME, organism-based; conditions: in vivo, BLD = below limit of detection
[16] = Drug concentration in plasma of collagen-induced arthritis Lewis rat model 20 mg/kg measured after 1 hr post-collection of plasma; assay type: ADME, organism-based
[17] = Drug concentration in plasma of collagen-induced arthritis Lewis rat model 20 mg/kg measured after 4 hrs post-collection of plasma; assay type: ADME, organism-based
[18] = target: T3, Tyrosine-protein kinase TXK (Homo sapiens, UniProt P42681); experiment: Inhibition of RLK (unknown origin) using peptide substrate in presence of ATP
T3 sequence (P42681 whole entry): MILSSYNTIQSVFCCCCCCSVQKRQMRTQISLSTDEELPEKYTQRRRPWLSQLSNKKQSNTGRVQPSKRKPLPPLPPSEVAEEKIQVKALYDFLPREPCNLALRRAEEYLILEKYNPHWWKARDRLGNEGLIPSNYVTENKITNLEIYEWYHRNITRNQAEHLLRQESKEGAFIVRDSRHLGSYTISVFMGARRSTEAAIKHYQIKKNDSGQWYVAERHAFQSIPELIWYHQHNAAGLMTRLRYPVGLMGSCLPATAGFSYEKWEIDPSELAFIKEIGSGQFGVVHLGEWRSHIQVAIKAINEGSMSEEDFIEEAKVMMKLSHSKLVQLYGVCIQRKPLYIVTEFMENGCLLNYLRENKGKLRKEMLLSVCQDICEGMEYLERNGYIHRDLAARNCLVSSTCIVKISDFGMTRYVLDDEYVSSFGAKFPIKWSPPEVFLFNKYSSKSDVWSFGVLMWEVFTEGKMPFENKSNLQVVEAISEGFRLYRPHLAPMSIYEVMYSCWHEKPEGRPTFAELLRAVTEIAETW

SMILES | IC50 [1] [nM] | solubility [2] [µM] | Papp B→A [3] [×10⁻⁶ cm/s] | microsomal CLint [4] [µL/min/mg] | Papp A→B [5] [×10⁻⁶ cm/s] | other results
COCCN1CCN(C(C)(C)/C=C(\C#N)C(=O)N2CCC[C@@H](n3nc(-c4ccc(Oc5ccccc5)cc4F)c4c(N)ncnc43)C2)CC1 | 169 | 210 (≈ 140 µg/mL) | 6 | 49 | 0.2 | –
CC1(/C=C(\C#N)C(=O)N2CCC[C@@H](n3nc(-c4ccc(Oc5ccccc5)cc4F)c4c(N)ncnc43)C2)COC1 | 224 | – | – | – | – | –
N#C/C(=C/C1CC1)C(=O)N1CCC[C@@H]1Cn1nc(-c2ccc(Oc3ccccc3)cc2F)c2c(N)ncnc21 | 196 | – | – | – | – | –
COC(=O)N1CCN(C(C)(C)/C=C(\C#N)C(=O)N2CCC[C@@H](n3nc(-c4ccc(Oc5ccccc5)cc4F)c4c(N)ncnc43)C2)CC1 | 179 | 1.1 (≈ 0.735 µg/mL) | 24 | 68 | 3.2 | AUC [6]: 432 ng·h/mL; Cmax [7]: 142 ng/mL; bioavailability [8]: 11.5%; clearance [9]: 89 mL/min/kg
CC(C)(/C=C(\C#N)C(=O)N1CCC[C@@H](n2nc(-c3ccc(Oc4ccccc4)cc3F)c3c(N)ncnc32)C1)N1CCN(C2COC2)CC1 [RILZABRUTINIB] | 123 | 125 (≈ 83.2 µg/mL) | 5.3 | 23 | 1.7 | IC50 [11]: 6.3 nM; concentration at 12 h [12]: 4.6 ng/mL; AUC [6]: 622 ng·h/mL; Cmax [7]: 270 ng/mL; IC50 [13]: 1 nM; IC50 [14]: 0.8 nM; bioavailability [8]: 12.3%; Cp [15]: Bld; concentration at 1 h [16]: 128 ng/mL; concentration at 4 h [17]: 106 ng/mL; clearance [9]: 66 mL/min/kg; IC50 [18]: 1.2 nM
CC(=O)N1CCN(C(C)(C)/C=C(\C#N)C(=O)N2CCC[C@@H](n3nc(-c4ccc(Oc5ccccc5)cc4F)c4c(N)ncnc43)C2)CC1 | 193 | 31 (≈ 20.2 µg/mL) | 22 | – | 0.6 | –
CC(C)(/C=C(\C#N)C(=O)N1CCC[C@@H](n2nc(-c3ccc(Oc4ccccc4)cc3F)c3c(N)ncnc32)C1)CO | 821 | – | – | – | – | –

Continued, in another order:

IC50 [1] [nM] | solubility [2] [µM] | Papp B→A [3] [×10⁻⁶ cm/s] | microsomal CLint [4] [µL/min/mg] | Papp A→B [5] [×10⁻⁶ cm/s] | SMILES | other results
442 | – | – | – | – | C[C@@H]1CN(C(C)(C)/C=C(\C#N)C(=O)N2CCC[C@@H](n3nc(-c4ccc(Oc5ccccc5)cc4F)c4c(N)ncnc43)C2)C[C@H](C)N1 | –
401 | 238 (≈ 145 µg/mL) | 3.4 | – | 0.07 | CC(C)(/C=C(\C#N)C(=O)N1CCC[C@@H](n2nc(-c3ccc(Oc4ccccc4)cc3F)c3c(N)ncnc32)C1)N1CCNCC1 | –
360 | – | – | – | – | CC(C)(N)/C=C(\C#N)C(=O)N1CCC[C@@H](n2nc(-c3ccc(Oc4ccccc4)cc3F)c3c(N)ncnc32)C1 | –
130 | 90 (≈ 57.4 µg/mL) | 5.5 | 80 | 0.4 | CN1CCN(C(C)(C)/C=C(\C#N)C(=O)N2CCC[C@@H](n3nc(-c4ccc(Oc5ccccc5)cc4F)c4c(N)ncnc43)C2)CC1=O | AUC [6]: 528 ng·h/mL; Cmax [7]: 345 ng/mL; bioavailability [8]: 10.9%; clearance [9]: 73 mL/min/kg
128 | 263 (≈ 171 µg/mL) | 2.5 | 14 | 0.3 | C[C@@H]1CN(C(C)(C)/C=C(\C#N)C(=O)N2CCC[C@@H](n3nc(-c4ccc(Oc5ccccc5)cc4F)c4c(N)ncnc43)C2)C[C@H](C)N1C | inhibition (INH) [10]: Active; AUC [6]: 2460 ng·h/mL; Cmax [7]: 392 ng/mL; bioavailability [8]: 67%; clearance [9]: 91 mL/min/kg
158 | – | – | – | – | CN(C)C(C)(C)/C=C(\C#N)C(=O)N1CCC[C@@H](n2nc(-c3ccc(Oc4ccccc4)cc3F)c3c(N)ncnc32)C1 | –
16.7 | – | – | – | – | CC(C)(/C=C(\C#N)C(=O)N1CCC[C@@H](n2nc(-c3ccc(Oc4ccccc4)cc3F)c3c(N)ncnc32)C1)N1CCOCC1 | –
381 | – | 25.8 | – | 1 | CC(C)(/C=C(\C#N)C(=O)N1CCC[C@@H](n2nc(-c3ccc(Oc4ccccc4)cc3F)c3c(N)ncnc32)C1)N1CCNC(=O)C1 | –
